One data set concerns the target hAM1 receptor (Homo sapiens, UniProt O60895+Q16602). In words: cAMP assay for in vitro receptor activation, hAM1-R. The format is cell-based. As to conditions: cAMP assay, hAM1 receptor; read-out: hAM1R EC50. The gist of the method: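 Stable hAM1 cells (monoclonal) plated 8000/well; buffer DPBS, 0.05% casein, 0.5 mM IBMX; cAMP read-out.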
In general terms: cAMP levels reflect the balance of adenylyl cyclase and phosphodiesterase activity.

The next data set concerns the target T1, hAMY3 receptor (Homo sapiens, UniProt O60896+P30988).
T1 sequence (P30988 25-474): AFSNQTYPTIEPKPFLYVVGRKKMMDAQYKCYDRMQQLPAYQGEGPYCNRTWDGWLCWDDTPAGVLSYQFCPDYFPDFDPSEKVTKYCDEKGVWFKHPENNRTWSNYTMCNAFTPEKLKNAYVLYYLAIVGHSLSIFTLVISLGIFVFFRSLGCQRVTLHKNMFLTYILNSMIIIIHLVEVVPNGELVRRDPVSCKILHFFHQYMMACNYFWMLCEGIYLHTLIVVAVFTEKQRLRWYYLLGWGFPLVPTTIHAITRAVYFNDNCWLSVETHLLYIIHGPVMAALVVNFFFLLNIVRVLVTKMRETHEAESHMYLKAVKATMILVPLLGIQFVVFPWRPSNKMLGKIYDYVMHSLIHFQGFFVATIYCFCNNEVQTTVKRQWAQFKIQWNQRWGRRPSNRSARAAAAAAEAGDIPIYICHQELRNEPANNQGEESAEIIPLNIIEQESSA
T1 sequence (O60896 24-148 partner): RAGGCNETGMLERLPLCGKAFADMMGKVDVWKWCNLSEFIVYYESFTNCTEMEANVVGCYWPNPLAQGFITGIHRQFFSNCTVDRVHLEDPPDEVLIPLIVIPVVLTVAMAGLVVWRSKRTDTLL
In words: cAMP assay for in vitro receptor activation, hAMY3-R. The format is cell-based. As to conditions: cAMP assay, hAMY3 receptor; read-out: hAMY3R EC50. In short, it runs like this: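 Stable hAMY3 cells; DPBS + 0.05% casein + 0.5 mM IBMX; graded compound doses, 30 min, RT; cAMP via HTRF Gs kit, TR-FRET read at 1 h.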

Data set [1] is described as follows: Physical stability of peptide analogues (Thioflavin T fibrillation). To be noted: maximum ThT signal normalized between hAMY maximum and buffer background; 40° C., shaking, four days; pH 7 per table title. The format is physicochemical. In short, it runs like this: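 Samples are stressed at 40 °C for four days, being shaken at 700 rpm before each 10-min fluorescence reading of 4 μM Thioflavin T. Buffers were pH 4 acetate or pH 7 phosphate. Reported values are smoothed maximum ThT signals as a percentage of the hAMY-to-background range.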

Bridge positions count the residues as written; N and C are the ends. Square brackets hold non-standard residues; d marks the D form. Peptide text beside a SMILES is read from it. Hyp = O=C(O)[C@@H]1C[C@@H](O)CN1; Cit = NC(=O)NCCC[C@H](N)C(=O)O

Chain of hAM1 receptor (Q16602 23-461): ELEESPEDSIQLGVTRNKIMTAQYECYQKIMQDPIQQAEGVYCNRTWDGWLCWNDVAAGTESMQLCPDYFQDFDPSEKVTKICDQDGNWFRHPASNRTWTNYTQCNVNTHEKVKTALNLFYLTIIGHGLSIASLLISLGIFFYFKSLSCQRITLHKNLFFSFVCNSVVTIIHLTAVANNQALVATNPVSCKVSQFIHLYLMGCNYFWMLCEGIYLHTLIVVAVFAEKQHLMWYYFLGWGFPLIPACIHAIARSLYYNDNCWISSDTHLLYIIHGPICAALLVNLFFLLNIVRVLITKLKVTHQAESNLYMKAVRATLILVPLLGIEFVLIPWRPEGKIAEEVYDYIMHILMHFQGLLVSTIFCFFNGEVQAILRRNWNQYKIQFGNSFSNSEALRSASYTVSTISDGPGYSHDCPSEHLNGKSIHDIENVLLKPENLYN
Chain of hAM1 receptor (O60895 43-175 partner): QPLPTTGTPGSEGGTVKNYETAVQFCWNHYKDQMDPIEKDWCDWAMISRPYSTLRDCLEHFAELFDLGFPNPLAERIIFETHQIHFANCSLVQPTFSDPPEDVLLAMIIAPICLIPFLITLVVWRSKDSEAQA

Regarding `CC[C@H](C)[C@H](NC(=O)[C@H](CCC(N)=O)NC(=O)[C@H](Cc1c[nH]cn1)NC(=O)[C@H](C)NC(=O)[C@H](CC(C)C)NC(=O)[C@H](CCCNC(=N)N)NC(=O)[C@H](CCC(N)=O)NC(=O)[C@@H](NC(=O)[C@@H](NC(=O)[C@@H]1CSSC[C@H](NC(=O)CN)C(=O)N[C@@H](CCCNC(=N)N)C(=O)N[C@@H](CCSC)C(=O)NCC(=O)N[C@@H]([C@@H](C)O)C(=O)N1)[C@@H](C)O)C(C)C)C(=O)N[C@@H](Cc1ccc(O)cc1)C(=O)N[C@@H](CCC(N)=O)C(=O)N[C@@H](Cc1ccccc1)C(=O)N[C@H](C(=O)N[C@@H](CC(=O)O)C(=O)N[C@@H](CCCCN)C(=O)N[C@@H](CC(=O)O)C(=O)N[C@@H](CCCCN)C(=O)N[C@@H](CC(=O)O)C(=O)N[C@@H](CC(N)=O)C(=O)N[C@H](C(=O)N[C@@H](C)C(=O)N1CCC[C@H]1C(=O)N[C@@H](CO)C(=O)N[C@@H](CO)C(=O)N[C@@H](CCCCN)C(=O)N[C@H](C(=O)N[C@@H](CO)C(=O)N1CCC[C@H]1C(=O)N[C@@H](CCC(N)=O)C(=O)N[C@H](C(=O)N1C[C@H](O)C[C@H]1C(N)=O)[C@@H](C)O)[C@@H](C)CC)C(C)C)[C@@H](C)O` [compound 222] (H-GCRMGTCTVQRLAHQIYQFTDKDKDNVAPSSKISPQT[Hyp]-NH2; disulfide 2-7; N-terminus assumed), the EC50 (usually the concentration at which the effect is half-maximal) on hAM1 receptor is more than 5000 nM; on hAMY3 receptor, 0.184 nM. Also, the “Max ThT signal (%)” value in data set [1] is listed as 11.700%.

With `CC[C@H](C)[C@H](NC(=O)[C@H](CCC(N)=O)NC(=O)[C@H](Cc1c[nH]cn1)NC(=O)[C@H](C)NC(=O)[C@H](CC(C)C)NC(=O)[C@H](CCCNC(=N)N)NC(=O)[C@H](CCC(N)=O)NC(=O)[C@@H](NC(=O)[C@@H](NC(=O)[C@@H]1CSSC[C@H](NC(=O)[C@@H](N)CCCCN)C(=O)N[C@@H](CC(N)=O)C(=O)N[C@@H]([C@@H](C)O)C(=O)N[C@@H](C)C(=O)N[C@@H]([C@@H](C)O)C(=O)N1)[C@@H](C)O)C(C)C)C(=O)N[C@@H](Cc1ccc(O)cc1)C(=O)N[C@@H](CCC(N)=O)C(=O)N[C@@H](Cc1ccccc1)C(=O)N[C@H](C(=O)N[C@@H](CC(=O)O)C(=O)N[C@@H](CCCCN)C(=O)N[C@@H](C)C(=O)N[C@@H](CCCCN)C(=O)N[C@@H](CC(=O)O)C(=O)N[C@@H](CC(N)=O)C(=O)N[C@H](C(=O)N[C@@H](C)C(=O)N1CCC[C@H]1C(=O)N1CCC[C@H]1C(=O)N[C@H](C(=O)N[C@@H](CC(N)=O)C(=O)N[C@H](C(=O)NCC(=O)N[C@@H](CO)C(=O)N[C@@H](CC(N)=O)C(=O)NCC(=O)N1C[C@H](O)C[C@H]1C(N)=O)C(C)C)[C@@H](C)O)C(C)C)[C@@H](C)O` [compound 43] (H-KCNTATCTVQRLAHQIYQFTDKAKDNVAPPTNVGSNG[Hyp]-NH2; disulfide 2-7; N-terminus assumed), the EC50 was more than 5000 nM on hAM1 receptor and 0.01 nM at hAMY3 receptor. For the same compound, in data set [1], the “Max ThT signal (%)” value is listed as 1.200%.

With `CC[C@H](C)[C@H](NC(=O)[C@H](CCC(N)=O)NC(=O)[C@H](CC(=O)O)NC(=O)[C@H](C)NC(=O)[C@H](CC(C)C)NC(=O)[C@H](Cc1c[nH]c2ccccc12)NC(=O)[C@H](C)NC(=O)[C@@H](NC(=O)[C@@H](NC(=O)[C@@H]1CSSC[C@H](NC(=O)[C@@H](N)CCCCN)C(=O)N[C@@H](CC(N)=O)C(=O)N[C@@H]([C@@H](C)O)C(=O)N[C@@H](CO)C(=O)N[C@@H]([C@@H](C)O)C(=O)N1)[C@@H](C)O)C(C)C)C(=O)N[C@H](C(=O)N[C@@H](CCC(N)=O)C(=O)N[C@@H](Cc1ccccc1)C(=O)N[C@@H](CO)C(=O)N[C@@H](CC(=O)O)C(=O)N[C@@H](CCCCN)C(=O)N[C@@H](CC(=O)O)C(=O)N[C@@H](CCCCN)C(=O)N[C@@H](C)C(=O)N[C@@H](CC(N)=O)C(=O)N[C@H](C(=O)N[C@@H](CO)C(=O)N1CCC[C@H]1C(=O)N1CCC[C@H]1C(=O)N[C@H](C(=O)N[C@@H](CCC(=O)O)C(=O)N[C@H](C(=O)NCC(=O)N1CCC[C@H]1C(=O)N[C@@H](CC(N)=O)C(=O)N[C@@H](CO)C(=O)N1C[C@H](O)C[C@H]1C(N)=O)C(C)C)[C@@H](C)O)C(C)C)[C@@H](C)O` [compound 310] (H-KCNTSTCTVAWLADQITQFSDKDKANVSPPTEVGPNS[Hyp]-NH2; disulfide 2-7), the concentration giving a half-maximal response (EC50) at hAM1 receptor is more than 5000 nM; on hAMY3 receptor, 0.003 nM. The “Max ThT signal (%)” value in data set [1] was found to be 3.500%.

Consider `CC[C@H](C)[C@H](NC(=O)[C@H](CC(N)=O)NC(=O)[C@@H](NC(=O)[C@H](CCCNC(=N)N)NC(=O)[C@@H]1CCCN1C(=O)[C@H](C)NC(=O)[C@@H](NC(=O)[C@H](CC(N)=O)NC(=O)[C@H](CC(=O)O)NC(=O)[C@H](CCCCN)NC(=O)[C@H](CC(=O)O)NC(=O)[C@H](CCCCN)NC(=O)[C@H](CC(=O)O)NC(=O)[C@@H](NC(=O)[C@H](Cc1ccccc1)NC(=O)[C@H](CCC(N)=O)NC(=O)[C@H](Cc1ccc(O)cc1)NC(=O)[C@@H](NC(=O)[C@H](CCC(N)=O)NC(=O)[C@H](Cc1c[nH]cn1)NC(=O)[C@H](C)NC(=O)[C@H](CC(C)C)NC(=O)[C@H](Cc1c[nH]c2ccccc12)NC(=O)[C@H](CCC(N)=O)NC(=O)[C@@H](NC(=O)[C@@H](NC(=O)[C@@H]1CSSC[C@H](NC(=O)CN)C(=O)N[C@@H](CCCNC(=N)N)C(=O)N[C@@H]([C@@H](C)O)C(=O)NCC(=O)N[C@@H]([C@@H](C)O)C(=O)N1)[C@@H](C)O)C(C)C)[C@@H](C)CC)[C@@H](C)O)C(C)C)[C@@H](C)O)C(=O)NCC(=O)N1CCC[C@H]1C(=O)N[C@@H](CC(N)=O)C(=O)NCC(=O)N[C@@H](Cc1ccc(O)cc1)C(N)=O` [compound 348] (H-GCRTGTCTVQWLAHQIYQFTDKDKDNVAPRTNIGPNGY-NH2; disulfide 2-7; N-terminus assumed), for which the EC50 at hAM1 receptor was more than 5000 nM; on hAMY3 receptor it was 0.041 nM. Also, the “Max ThT signal (%)” value in data set [1] is 2.750%.

On to `CC[C@H](C)[C@H](NC(=O)[C@H](CCC(N)=O)NC(=O)[C@H](CCC(=O)O)NC(=O)[C@H](C)NC(=O)[C@H](CC(C)C)NC(=O)[C@H](CCCNC(N)=O)NC(=O)[C@H](CCC(N)=O)NC(=O)[C@@H](NC(=O)[C@@H](NC(=O)[C@@H]1CSSC[C@H](NC(=O)[C@@H](N)CCCCN)C(=O)N[C@@H](CC(N)=O)C(=O)N[C@@H]([C@@H](C)O)C(=O)N[C@@H](C)C(=O)N[C@@H]([C@@H](C)O)C(=O)N1)[C@@H](C)O)C(C)C)C(=O)N[C@@H](Cc1ccc(O)cc1)C(=O)N[C@@H](CCC(N)=O)C(=O)N[C@@H](Cc1ccccc1)C(=O)N[C@H](C(=O)N[C@@H](CC(=O)O)C(=O)N[C@@H](CCCCN)C(=O)N[C@@H](CC(=O)O)C(=O)N[C@@H](CCCCN)C(=O)N[C@@H](CC(=O)O)C(=O)N[C@@H](CC(N)=O)C(=O)N[C@H](C(=O)N[C@@H](CO)C(=O)N1CCC[C@H]1C(=O)N1CCC[C@H]1C(=O)N[C@H](C(=O)N[C@@H](CC(N)=O)C(=O)N[C@H](C(=O)NCC(=O)N[C@@H](CO)C(=O)N[C@@H](CC(N)=O)C(=O)NCC(=O)N1C[C@H](O)C[C@H]1C(N)=O)C(C)C)[C@@H](C)O)C(C)C)[C@@H](C)O` [compound 266] (H-KCNTATCTVQ[Cit]LAEQIYQFTDKDKDNVSPPTNVGSNG[Hyp]-NH2; disulfide 2-7; N-terminus assumed), for which the EC50 at hAM1 receptor was more than 5000 nM; on hAMY3 receptor, 0.053 nM. Further, the “Max ThT signal (%)” value in data set [1] was 20.900%.

Regarding `CC[C@H](C)[C@H](NC(=O)[C@H](CCC(N)=O)NC(=O)[C@H](Cc1c[nH]cn1)NC(=O)[C@H](C)NC(=O)[C@H](CC(C)C)NC(=O)[C@H](CCCNC(=N)N)NC(=O)[C@H](CCC(N)=O)NC(=O)[C@@H](NC(=O)[C@@H](NC(=O)[C@@H]1CSSC[C@H](NC(=O)[C@@H](N)CCCCN)C(=O)N[C@@H](CC(N)=O)C(=O)N[C@@H]([C@@H](C)O)C(=O)N[C@@H](C)C(=O)N[C@@H]([C@@H](C)O)C(=O)N1)[C@@H](C)O)C(C)C)C(=O)N[C@@H](Cc1ccc(O)cc1)C(=O)N[C@@H](CCC(N)=O)C(=O)N[C@@H](Cc1ccccc1)C(=O)N[C@H](C(=O)N[C@@H](C)C(=O)N[C@@H](CCCCN)C(=O)N[C@@H](CC(=O)O)C(=O)N[C@@H](CCCCN)C(=O)N[C@@H](CC(=O)O)C(=O)N[C@@H](CC(N)=O)C(=O)N[C@H](C(=O)N[C@@H](C)C(=O)N1CCC[C@H]1C(=O)N1CCC[C@H]1C(=O)N[C@H](C(=O)N[C@@H](CC(N)=O)C(=O)N[C@H](C(=O)NCC(=O)N[C@@H](CO)C(=O)N[C@@H](CC(N)=O)C(=O)NCC(=O)N1C[C@H](O)C[C@H]1C(N)=O)C(C)C)[C@@H](C)O)C(C)C)[C@@H](C)O` [compound 24] (H-KCNTATCTVQRLAHQIYQFTAKDKDNVAPPTNVGSNG[Hyp]-NH2; disulfide 2-7; N-terminus assumed), the values for the EC50 on hAM1 receptor and at hAMY3 receptor were more than 5000 nM and 0.008 nM, respectively. Moreover, the “Max ThT signal (%)” value in data set [1] came out at 6.800%.

The record behind these values is patent US12139520B2 (priority 2020, dated 2024).
